The subject of this assay is SK-N-SH human neuroblastoma cells. In words: Serum deprivation/JC-1 mitochondrial membrane potential (MMP) assay. The assay is classed as cell-based. Particulars: Homo sapiens; for Emax: SK-N-SH, percent maximal intensity in JC-1 ratio normalized to 10 μM dimebolin, read-out: JC-1 max %; for EC50: SK-N-SH cells, serum deprivation ~18 hours, JC-1 ratio normalized to peak value for 10 μM dimebolin, single curve fit to mean data of n=2-3, read-out: EC50. The protocol: SK-N-SH human neuroblastoma cells obtained from American Type Culture Collection (Rockville, Md.) were maintained in the log phase of growth in Minimal Essential Media (MEM), 10% heat inactivated fetal calf serum and 100 units/mL antibiotic-antimycotic (AA). Cells were cultured and maintained in a humidified incubator at 37° C. under 5% CO2 and 95% air. Cells were trypsinized (0.25%) and subcultured every 3 days and used from 15-18 passages. All cell culture supplies were obtained from Invitrogen (Carlsbad, Calif.).
SK-N-SH cells were plated 2-3 days in advance at a concentration of 50,000 cells/well onto collagen coated black-walled 96 well plates (Becton-Dickinson, Bedford, Mass.) in a total volume of 200 μL. On day of experimental treatment, the media containing serum was aspirated from each well and rinsed once with MEM/1% AA without serum. The cells then were incubated overnight in 100 μL of MEM/1% AA (no serum) with and without dimebolin or novel chemical entities overnight for ˜18 hours. The following day, JC-1 dye (5,5′,6,6′-tetrachloro-1,1′,3,3′-tetraethylbenzimidazolcarbocyanide) was diluted 1:10 into MEM media according to the JC-1 Mitochondrial Membrane Potential Assay Kit: (Cayman Chemical Company, Ann Arbor, Mich.) and then 10 μL of the JC-1 dye solution was added to each well. The plates were centrifuged for 5 minutes at 400×g at room temperature followed by 35 minute incubation at 37° C. The plates were washed twice with 200[…] μL of provided Assay Buffer followed an addition of 100 μL of Assay Buffer to each well. The plates were read with an excitation and emission of 560 nm and 595 nM for red fluorescence and with an excitation and emission of 485 nm and 535 nM for green fluorescence to determine the final JC-1 value taking the red to green fluorescence ratio. This assay is based on change in mitochondrial membrane potential (MMP) using this lipophilic cationic dye, JC-1, by monitoring the changes in the ratio of red to green fluorescence as the MMP depolarizes. This change in MMP reflects the health of the cell with healthy, viable cells have a high JC-1 ratio and high MMP whereas apoptotic, unhealthy cells have a low JC-1 ratio or low MMP.
For the ability of compounds to reverse the stress due to serum deprivation and increase the JC-1 ratio, the percent maximal intensity in JC-1 ratio was normalized to that induced by the peak value for 10 μM dimebolin and plotted against the compound concentration to calculate EC50 values and to control for plate-to-plate variability. Concentration-response data were analyzed using GraphPad Prism (San Diego, Calif.); the EC50 values were derived from a single curve fit to the mean data of n=2-3, in duplicates.
All compounds were dissolved in dimethyl sulfoxide at 10 mM stock solutions and tested at a concentration that the dimethyl sulfoxide levels never exceeded 1%.

One may read the EC50 as the midpoint of the concentration-response curve. Consider `Fc1cncc(Cn2c3c(c4cc(F)ccc42)CN2CCC3CC2)c1` [Example 246, 9-fluoro-6-[(5-fluoropyridin-3-yl)methyl]-3,4,5,6-tetrahydro-1H-2,5-ethanoazepino[4,3-b]indole], for which the Emax amounted to 148% and the EC50 amounted to 8.76 µM.

Regarding `Cc1ccc(CCn2c3c(c4cc(-c5ccc(Cl)cc5)ccc42)C2CCC(C3)N2C)cn1` (stereo not shown) [Example 106, 2-(4-chlorophenyl)-11-methyl-5-[2-(6-methylpyridin-3-yl)ethyl]-5,6,7,8,9,10-hexahydro-7,10-epiminocyclohepta[b]indole], the Emax turned out to be 238% and the EC50 turned out to be 5.73 µM.

As for `Fc1ccc(CCn2c3c(c4cc(F)ccc42)CN2CCC3CC2)cc1` [Example 163, 9-fluoro-6-[2-(4-fluorophenyl)ethyl]-3,4,5,6-tetrahydro-1H-2,5-ethanoazepino[4,3-b]indole], the Emax came to 140% and the EC50 came to 4.03 µM.

Take `Fc1ccc2c(c1)c1c(n2Cc2coc(-c3ccccc3)n2)C2CCN(CC2)C1` [Example 173, 9-fluoro-6-[(2-phenyl-1,3-oxazol-4-yl)methyl]-3,4,5,6-tetrahydro-1H-2,5-ethanoazepino[4,3-b]indole]: the Emax turned out to be 120% and the EC50 came out at 6.15 µM.

As for `Fc1ccc2c(c1)c1c(n2Cc2ccc(N3CCCC3)nc2)C2CCN(CC2)C1` [Example 244, 9-fluoro-6-{[6-(pyrrolidin-1-yl)pyridin-3-yl]methyl}-3,4,5,6-tetrahydro-1H-2,5-ethanoazepino[4,3-b]indole], the Emax worked out at 226% and the EC50 amounted to 5.65 µM.

For `Cc1ccc2c(c1)c1c(n2CCc2ccc(C)nc2)CC2CCC1N2S(=O)(=O)c1ccc(C(F)(F)F)cc1` (stereo not shown) [Example 18, 2-methyl-5-[2-(6-methylpyridin-3-yl)ethyl]-11-{[4-(trifluoromethyl)phenyl]sulfonyl}-5,6,7,8,9,10-hexahydro-7,10-epiminocyclohepta[b]indole], the Emax came out at 307% and the EC50 is 3.19 µM.

As to `O=c1cccnn1CCn1c2c(c3cc(F)ccc31)CN1CCC2CC1` [Example 238, 2-[2-(9-fluoro-1,3,4,5-tetrahydro-6H-2,5-ethanoazepino[4,3-b]indol-6-yl)ethyl]pyridazin-3(2H)-one], the Emax stood at 86.5% and the EC50 was 11.6 µM.

On to `c1cc(N2CCOCC2)nc(-n2c3c(c4ccccc42)CN2CCC3CC2)c1` [Example 265, 6-[6-(morpholin-4-yl)pyridin-2-yl]-3,4,5,6-tetrahydro-1H-2,5-ethanoazepino[4,3-b]indole], for which the Emax is 264% and the EC50 was 1.84 µM.

Regarding `Cc1ccc2c(c1)c1c(n2CCc2ccc(C)nc2)CC2CCC1N2C(=O)c1ccc(Cl)cc1` (stereo not shown) [Example 17, 11-(4-chlorobenzoyl)-2-methyl-5-[2-(6-methylpyridin-3-yl)ethyl]-5,6,7,8,9,10-hexahydro-7,10-epiminocyclohepta[b]indole], the Emax was found to be 345% and the EC50 was determined as 3.53 µM.

As to `O=c1cnc2ccc(-n3c4c(c5cc(F)ccc53)CN3CCC4CC3)cc2[nH]1` [Example 260, 7-(9-fluoro-1,3,4,5-tetrahydro-6H-2,5-ethanoazepino[4,3-b]indol-6-yl)quinoxalin-2(1H)-one], the Emax was determined as 191% and the EC50 worked out at 2.91 µM.

With `Cc1ccc2c(c1)c1c(n2CCc2scnc2C)CC2CCC1N2C` (stereo not shown) [Example 35, 2,11-dimethyl-5-[2-(4-methyl-1,3-thiazol-5-yl)ethyl]-5,6,7,8,9,10-hexahydro-7,10-epiminocyclohepta[b]indole], the Emax amounted to 78% and the EC50 was 6.71 µM.

On to `Cc1ccc2c(c1)c1c(n2-c2ccc3ccncc3c2)C[C@@H]2CC[C@H]1N2C` [Example 68, (7S,10R)-5-isoquinolin-7-yl-2,11-dimethyl-5,6,7,8,9,10-hexahydro-7,10-epiminocyclohepta[b]indole], for which the Emax was found to be 213% and the EC50 is 3.22 µM.

For `Cc1ccc(CCn2c3c(c4cc(OC(F)(F)F)ccc42)C2CCCC(C3)N2)cn1` (stereo not shown) [Example 140, 5-[2-(6-methylpyridin-3-yl)ethyl]-2-(trifluoromethoxy)-6,7,8,9,10,11-hexahydro-5H-7,11-epiminocycloocta[b]indole], the Emax amounted to 194% and the EC50 was determined as 3.32 µM.

Take `O=c1cccnn1-c1ccc(-n2c3c(c4ccccc42)CN2CCC3CC2)cc1` [Example 287, 2-[4-(1,3,4,5-tetrahydro-6H-2,5-ethanoazepino[4,3-b]indol-6-yl)phenyl]pyridazin-3(2H)-one]: the Emax was 209% and the EC50 worked out at 1.53 µM.

For the compound `Fc1ccc2c(c1)c1c(n2Cc2cn3nc(Cl)ccc3n2)C2CCN(CC2)C1` [Example 253, 6-[(6-chloroimidazo[1,2-b]pyridazin-2-yl)methyl]-9-fluoro-3,4,5,6-tetrahydro-1H-2,5-ethanoazepino[4,3-b]indole], the Emax was found to be 185% and the EC50 came out at 4.4 µM.

For `Cc1ccc2c(c1)c1c(n2-c2ccc3ccccc3n2)C2CCN(CC2)C1` [Example 222, 9-methyl-6-quinolin-2-yl-3,4,5,6-tetrahydro-1H-2,5-ethanoazepino[4,3-b]indole], the Emax is 215% and the EC50 came to 4.43 µM.

As to `Cc1ccc(CCn2c3c(c4cc(S(C)(=O)=O)ccc42)CN2CCC3CC2)cn1` [Example 182, 6-[2-(6-methylpyridin-3-yl)ethyl]-9-(methylsulfonyl)-3,4,5,6-tetrahydro-1H-2,5-ethanoazepino[4,3-b]indole], the Emax was 60% and the EC50 stood at 9.28 µM.

As to `O=c1cccnn1-c1ccc(Cn2c3c(c4cc(F)ccc42)CN2CCC3CC2)cc1` [Example 255, 2-{4-[(9-fluoro-1,3,4,5-tetrahydro-6H-2,5-ethanoazepino[4,3-b]indol-6-yl)methyl]phenyl}pyridazin-3(2H)-one], the Emax was 171% and the half-maximal effective concentration (EC50) amounted to 5.72 µM.

In the case of `Cc1ccc2c(c1)c1c(n2CCOc2ccc(F)cc2)CC2CCC1N2C` (stereo not shown) [Example 67, 5-[2-(4-fluorophenoxy)ethyl]-2,11-dimethyl-5,6,7,8,9,10-hexahydro-7,10-epiminocyclohepta[b]indole], the Emax worked out at 132% and the EC50 is 6.49 µM.

For `Cc1ccc(S(=O)(=O)n2c3c(c4cc(Br)ccc42)C2CCC(C3)N2C)cc1` (stereo not shown) [Example 90, 2-bromo-11-methyl-5-[(4-methylphenyl)sulfonyl]-5,6,7,8,9,10-hexahydro-7,10-epiminocyclohepta[b]indole], the Emax was 176% and the 50% effective concentration (EC50) worked out at 3.43 µM.

With `CN1CCc2cc(-n3c4c(c5ccccc53)CN3CCC4CC3)ccc2C1` [Example 268, 6-(2-methyl-1,2,3,4-tetrahydroisoquinolin-6-yl)-3,4,5,6-tetrahydro-1H-2,5-ethanoazepino[4,3-b]indole], the Emax is 237% and the EC50 turned out to be 4.43 µM.

`Fc1ccc2c(c1)c1c(n2-c2cccc(-n3cccn3)n2)C2CCN(CC2)C1` [Example 225, 9-fluoro-6-[6-(1H-pyrazol-1-yl)pyridin-2-yl]-3,4,5,6-tetrahydro-1H-2,5-ethanoazepino[4,3-b]indole]: the Emax was 209% and the EC50 came to 2.74 µM.

As to `O=c1ccnc2ccc(-n3c4c(c5ccccc53)[C@@H]3CC[C@H](C4)N3)cn12` (single isomer, unassigned) [Example 284], the Emax was 108% and the EC50 came out at 7.62 µM.

Turning to `CN1[C@H]2CC[C@@H]1c1c(n(-c3ccc4ncccc4c3)c3ccccc13)C2` [Example 281, (7S,10R)-11-methyl-5-(quinolin-6-yl)-5,6,7,8,9,10-hexahydro-7,10-epiminocyclohepta[b]indole], the Emax was found to be 228% and the EC50 was found to be 1.74 µM.

`Cc1ccc2c(c1)c1c(n2S(=O)(=O)c2ccccc2)CC2CCC1N2C` (stereo not shown) [Example 69, 2,11-dimethyl-5-(phenylsulfonyl)-5,6,7,8,9,10-hexahydro-7,10-epiminocyclohepta[b]indole]: the Emax came out at 161% and the EC50 stood at 4.43 µM.

With `O=c1ccnc2ccc(-n3c4c(c5ccccc53)[C@H]3CC[C@@H](C4)N3)cn12` (single isomer, unassigned) [Example 283], the Emax amounted to 170% and the EC50 amounted to 6.02 µM.

Values taken from US9983218B2, “Indole and indoline derivatives and methods of use thereof” (AbbVie Inc., priority 2008, dated 2018).
